This note sets out measurements from BindingDB's records for doi:10.1016/j.bmcl.2005.10.040 (Huazhong University of Science and Technology, 2005).

The IC50 is the concentration at which inhibition is half-maximal. A higher IC50 goes with weaker potency in that assay.

The target in assay [1] is T1, Succinate-semialdehyde dehydrogenase, mitochondrial (Homo sapiens, UniProt P51649).
T1 sequence (P51649 whole entry): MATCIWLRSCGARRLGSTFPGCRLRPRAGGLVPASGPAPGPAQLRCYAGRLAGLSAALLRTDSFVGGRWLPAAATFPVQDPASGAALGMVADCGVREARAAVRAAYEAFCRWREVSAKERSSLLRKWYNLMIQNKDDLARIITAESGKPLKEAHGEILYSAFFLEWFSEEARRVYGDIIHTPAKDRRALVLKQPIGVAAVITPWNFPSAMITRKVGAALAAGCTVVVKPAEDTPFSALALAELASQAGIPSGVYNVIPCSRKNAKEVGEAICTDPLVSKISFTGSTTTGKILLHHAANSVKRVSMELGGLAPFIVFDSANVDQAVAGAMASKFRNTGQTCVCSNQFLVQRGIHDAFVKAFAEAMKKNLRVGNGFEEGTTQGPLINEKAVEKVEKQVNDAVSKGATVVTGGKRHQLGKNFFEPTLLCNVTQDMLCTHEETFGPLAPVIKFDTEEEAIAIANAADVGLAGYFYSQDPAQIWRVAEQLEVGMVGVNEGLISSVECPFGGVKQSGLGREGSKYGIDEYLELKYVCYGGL
Briefly: Inhibitory activity against SSADH.

Assay [2] has as its target 4-aminobutyrate aminotransferase, mitochondrial (Homo sapiens, UniProt P80404). Briefly: Inhibitory activity against GABAT.

Chain of 4-aminobutyrate aminotransferase, mitochondrial (P80404 whole entry): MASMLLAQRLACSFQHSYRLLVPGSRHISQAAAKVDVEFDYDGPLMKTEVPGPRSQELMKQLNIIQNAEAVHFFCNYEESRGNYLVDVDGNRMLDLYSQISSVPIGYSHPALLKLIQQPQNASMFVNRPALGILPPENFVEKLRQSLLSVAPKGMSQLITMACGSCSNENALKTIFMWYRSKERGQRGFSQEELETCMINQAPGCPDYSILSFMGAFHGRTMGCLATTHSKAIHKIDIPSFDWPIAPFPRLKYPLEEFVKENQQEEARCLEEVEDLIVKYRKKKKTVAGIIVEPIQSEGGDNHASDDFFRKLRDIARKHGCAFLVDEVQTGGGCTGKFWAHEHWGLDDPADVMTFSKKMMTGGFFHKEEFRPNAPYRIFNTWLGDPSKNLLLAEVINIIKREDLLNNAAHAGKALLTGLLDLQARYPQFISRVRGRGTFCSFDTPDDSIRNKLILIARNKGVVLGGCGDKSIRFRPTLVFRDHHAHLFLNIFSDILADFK

Regarding `COc1cc(CN=O)ccc1O` [4-hydroxy-3-methoxybenzaldehyde oxime], the IC50 in assay [1] and in assay [2] was greater than 1000 µM each time.

As to `O=NCc1ccc(O)cc1` [4-hydroxybenzaldehyde oxime], the IC50 in assay [1] and in assay [2] was greater than 1000 µM each time.
